This note sets out measurements from publication PMC11083148, “Structure–Activity Relationship Studies on Highly Functionalized Pyrazole Hydrazones and Amides as Antiproliferative and Antioxidant Agents” (International Journal of Molecular Sciences, 2024).

A word on the IC50: it is the concentration needed to halve the response being measured.

The subject of one data set is MCF7. The data set is described as follows: MTT assay, antiproliferative activity. The format is cell-based. To be noted: 10 µM, 48h; for mean growth percentage (cell growth remaining vs control) at 10 µM: Homo sapiens. As to the method: (§1) Pyrazole acylhydrazones 10–13 and amides 14–22 were tested by MTT assay to evaluate their antiproliferative and cytotoxicity properties against a panel of eight tumor cell lines and normal fibroblasts.
(§2) All reagents were purchased from EuroClone, Milan, Italy). The following cell lines were used for MTT assays: SKOV-3 (ovarian adenocarcinoma, ATCC, Manassas, VA, USA); MCF-7 (breast adenocarcinoma, Biologic Bank and Cell Factory, IRCCS Policlinico San Martino, Genoa, Italy); Hep-G2 (hepatocellular carcinoma, ATCC, Manassas, VA, USA); SK-MEL28 (skin melanoma, Biologic Bank and Cell Factory, IRCCS Policlinico San Martino, Genoa, Italy), GM-6114 (embryonic human fibroblast, ATCC, Manassas, VA, USA); MDA-MB231 (breast adenocarcinoma, Biologic Bank and Cell Factory, IRCCS Policlinico San Martino, Genoa, Italy); HeLa (cervical adenocarcinoma, Biologic Bank and Cell Factory, IRCCS Policlinico San Martino, Genoa, Italy); SK-BR3 (breast andenocarcinoma, Biologic Bank and Cell Factory, IRCCS Policlinico San Martino, Genoa, Italy); A549 (lung carcinoma, Biologic Bank and Cell Factory, IRCCS Policlinico San Martino, Genoa, Italy); HUVEC (Human Umbilical Vein Endothelial Cells, ATCC, Manassas, VA, USA). All cell lines were grown in their medium with 10% FBS, 2 mM Glutamine, and 1% penstrep and incubated at 37 °C in 5% CO2 in a humidified environment. The cell lines were plated in 96-well plates at an adequate number to reach 80–90% confluence at the end of the assay. 16 h after cell plating, a 10 mM DMSO stock solution of the compounds was diluted in growth medium and added at a final working concentration of 10 μM. After 48h of incubation, a 2 mg/mL PBS solution of MTT (3-(4,5-dimethyl-2-thiazolyl)-2,5-diphenyl-2H-tetrazolium bromide) was added (30 μL/well). After 4h, the supernatant was removed, and the Formazan precipitates were dissolved in DMSO (100 μL/well). The 96-well plates were incubated for 20 min, and absorbance was measured at 570 nm using a plate reader. The results are expressed as a percentage ratio over control samples (100%) in which the cells were incubated with the same amount of DMSO but without compounds. Each value is the mean of three independent experiments run in six replicates.
(§3) Each IC50 value is the mean of three independent experiments run in duplicate.
On the technique in general: Formazan colour is commonly taken as a measure of viable cells.

The subject of a further data set is HeLa. Nature of the data set: MTT assay, antiproliferative activity. In kind it is cell-based. To be noted: 10 µM, 48h; for activity at 10 µM: Homo sapiens, read-out: Mean Growth Percentage. As to the method: as §1, §2, §3
The next data set deals with SKOV3. Nature of the data set: MTT assay, antiproliferative activity. In kind it is cell-based. To be noted: 48h; for Mean growth percentage at 10 µM: Homo sapiens, SK-OV-3, 10 µM. As to the method: as §1, §2, §3
A further data set concerns SKMEL28. Nature of the data set: MTT assay, antiproliferative activity. The format is cell-based. To be noted: 48h; for Mean growth percentage at 10 µM: Homo sapiens, SK-MEL-28, 10 µM. As to the method:
as §1, §2, §3

A further data set deals with MDA-MB231. Nature of the data set: MTT assay, antiproliferative activity. The format is cell-based. The following applies: for Mean growth percentage at 10 µM: Homo sapiens, MDA-MB-231, 48h. As to the method:
as §1, §2

In the next data set the test system is A549. The data set is described as follows: MTT assay, antiproliferative activity. In kind it is cell-based. The following applies: 48h; for activity at 10 µM: Homo sapiens, read-out: Mean Growth Percentage. As to the method: as §1, §2
The next data set has as its system SK-BR3. Nature of the data set: MTT assay, antiproliferative activity. To be noted: for Mean growth percentage at 10 µM: Homo sapiens, SK-BR-3, 48h. In kind it is cell-based. As to the method:
as §1, §2

A further data set deals with Hep-G2. The data set is described as follows: MTT assay, antiproliferative activity. The format is cell-based. To be noted: for Mean growth percentage at 10 µM: Homo sapiens, HepG2, 48h. As to the method: as §1, §2
For another data set, the system named is GM-6114. Nature of the data set: MTT assay, cytotoxicity on normal fibroblasts. The format is cell-based. To be noted: human, 48 h, 10 µM.
Data set [1] relates to washed platelets. The data set is described as follows: Platelet aggregation (thrombin-induced, Born's method). To be noted: Homo sapiens, 0.1 U/mL thrombin, mean ± SD, read-out: IC50 Aggregation inhibition. In kind it is cell-based. As to the method: (§4) The antioxidant properties of acylhydrazones 10–13 and pyrazolyl amides 14–22 were tested by evaluating their inhibition of platelet aggregation and ROS production (Figure 3, Table S1). In fact, human platelets could represent a fast and low-cost biological model to screen compounds as anticancer, anti-inflammatory, and antiaggregating agents. Moreover, ROS production inhibition, related to human platelet aggregation, could provide a good indication of the anti-inflammatory and antioxidant properties of the newly synthesized compounds [47, 50, 51, 52]. N-acetylcysteine (NAC) and acetyl salicylic acid (ASA) were used as reference drugs for antioxidant and antiaggregant activities, respectively.
(§5) Freshly drawn venous blood from healthy volunteers from “Centro Trasfusionale” (IRCCS Policlinico San Martino, Genoa, Italy) was collected into a 130 mM aqueous trisodium citrate anticoagulant solution (9:1). The donors claimed to not have taken drugs known to interfere with platelet function during the two weeks prior to blood collection and gave their informed consent. Whole blood was centrifuged at 100× g for 20 min to afford platelet-rich plasma that was then spun at 1100× g for 15 min. The obtained pellet was washed once with a pH 5.2 ACD solution (75 mM trisodium citrate, 42 mM citric acid, and 136 mM glucose), centrifuged at 1100× g for 15 min, and then re-suspended in pH 7.4 Hepes buffer (145 mM NaCl, 5 mM KCl, 1 mM MgSO4, 10 mM glucose, and 10 mM HEPES).
Thrombin was purchased from Sigma-Aldrich/Merck Millipore. A DMSO solution of compounds 10–22 was diluted in saline immediately before each experiment and added to the washed platelets (3.0 × 10^8/mL) at 37 °C. After 3 min, 0.1 U/mL thrombin was added, and platelet aggregation was quantified according to Born’s method using a Bio-Data Aggregometer (Bio-Data Corporation, Horsham, PA, USA). The IC50 values were calculated as detailed above.

The subject of data set [2] is washed platelets. Nature of the data set: ROS assay in platelets (DCFH-DA, thrombin-stimulated). To be noted: 0.1 U/mL thrombin, mean ± SD, read-out: IC50 ROS production inhibition. In kind it is cell-based, human. As to the method: as §4, §5
2′,7′-Dichlorofluorescein diacetate (DCFH-DA) and thrombin were purchased from Sigma-Aldrich/Merck Millipore. DMSO solutions of 10–22 were diluted in saline immediately before each experiment. ROS production was quantified by DCFH-DA, a ROS-sensitive probe that yields, upon oxidation, the fluorescent adduct DCF that is trapped inside the cells. Briefly, washed platelets (1.0 × 10^8/mL), pre-incubated with saline solutions of 10–22 for 15 min at 37 °C, were stimulated by 0.1 U/mL thrombin. Incubation was stopped by cooling samples in an ice bath, and then samples were immediately analyzed in a Merck Millipore Bioscience Guava easyCyte flow cytometer (Merk Millipore, Burlington, MA, USA). The reported IC50 values represent the molar concentration of the compounds able to inhibit 50% of the maximal aggregation induced by the agonist and are calculated as the percentage inhibition of the maximal aggregation measured in the presence of the agent compared with the measure in a control sample containing saline, carried out under the same conditions. The IC50 values were extrapolated from nonlinear regression analysis of concentration–response curves (three points) using MS Excel software (Microsoft 365 suite). Each IC50 value is the mean of six independent experiments.

With `COc1ccc(/C=N/NC(=O)c2c(N)nn(C)c2Nc2ccccc2)cc1OC` [11b, (E)-3-amino-N′-(3,4-dimethoxybenzylidene)-1-methyl-5-(phenylamino)-1H-pyrazole-4-carbohydrazide], the mean growth percentage (cell growth remaining vs control) at 10 µM in the data set with MCF7 came to 94.8%. The activity at 10 µM amounted to 99.5% with HeLa and 94.8% in the data set on A549. Moreover, the Mean growth percentage at 10 µM in the data set with SKOV3 worked out at 100%; in the data set on SKMEL28, 93%; with MDA-MB231, 85.7%; in the data set on SK-BR3, 86%; in the data set on Hep-G2, 116%. The “Mean Growth Percentage” value with GM-6114 worked out at 104.95%. Besides, the IC50 was determined as 129 ± 10 µM in the data set on washed platelets [1] and 113 ± 7 µM with washed platelets [2] (Homo sapiens, Platelet).

The compound `COc1ccc(/C=N/NC(=O)c2c(N)nn(C)c2Nc2ccccc2)cc1Oc1ccccc1` [11c, (E)-3-amino-N′-(4-methoxy-3-phenoxybenzylidene)-1-methyl-5-(phenylamino)-1H-pyrazole-4-carbohydrazide] gave a mean growth percentage (cell growth remaining vs control) at 10 µM with MCF7 of 84.5%. Moreover, the values for the activity at 10 µM with HeLa and with A549 were 101% and 91.7%, respectively. Also, the Mean growth percentage at 10 µM in the data set with SKOV3 is 110%; in the data set with SKMEL28, 87.6%; in the data set with MDA-MB231, 93.4%; in the data set on SK-BR3, 83.1%; with Hep-G2 it was 113%. Moreover, in the data set with GM-6114, the “Mean Growth Percentage” value worked out at 105.27%. Further, the concentration for half-maximal inhibition (IC50) with washed platelets [1] came out at 841 ± 43 µM; in the data set on washed platelets [2] (Homo sapiens, Platelet) it was 148 ± 13 µM.

`COc1ccc(/C=N/NC(=O)c2c(Nc3ccccc3)nn(C)c2N)cc1` [12a, (E)-5-amino-N′-(4-methoxybenzylidene)-1-methyl-3-(phenylamino)-1H-pyrazole-4-carbohydrazide] gave a mean growth percentage (cell growth remaining vs control) at 10 µM in the data set on MCF7 of 88.5%. Moreover, the activity at 10 µM was found to be 94.8% with HeLa and 97.1% in the data set with A549. The Mean growth percentage at 10 µM in the data set on SKOV3 stood at 102%; with SKMEL28, 76.2%; with MDA-MB231, 97.9%; in the data set with SK-BR3, 95%; in the data set with Hep-G2, 111%. Moreover, the “Mean Growth Percentage” value with GM-6114 amounted to 100.38%. The IC50 in the data set on washed platelets [1] was found to be 265 ± 23 µM; in the data set with washed platelets [2] (Homo sapiens, Platelet) it was 113 ± 7 µM.

Compound `COc1ccc(/C=N/NC(=O)c2c(Nc3ccccc3)nn(C)c2N)cc1Oc1ccccc1` [12c, (E)-5-amino-N′-(4-methoxy-3-phenoxybenzylidene)-1-methyl-3-(phenylamino)-1H-pyrazole-4-carbohydrazide] displayed a mean growth percentage (cell growth remaining vs control) at 10 µM in the data set on MCF7 of 88.3%. Further, the activity at 10 µM amounted to 85.2% in the data set with HeLa and 98.5% in the data set with A549. Moreover, the Mean growth percentage at 10 µM in the data set on SKOV3 is 104%; with SKMEL28, 94.6%; in the data set on MDA-MB231 it was 100%; in the data set on SK-BR3, 82.1%; in the data set with Hep-G2, 111%. For the same compound, the “Mean Growth Percentage” value in the data set on GM-6114 was 104.08%. In addition, the IC50 with washed platelets [1] turned out to be 331 ± 14 µM; with washed platelets [2] (Homo sapiens, Platelet), 193 ± 16 µM.

`CC(=O)Oc1ccccc1C(=O)O` [ASA, acetyl salicylic acid, reference compound]: the concentration for half-maximal inhibition (IC50) in the data set with washed platelets [1] turned out to be 438 µM.

For `N.N.[Cl][Pt][Cl]` [CisPt, cisplatin, reference compound], the “Mean Growth Percentage” value in the data set with MCF7 was 72.74%; in the data set on HeLa, 29.33%; with SKOV3 (10 µM), 36.83%; in the data set with SKMEL28 (10 µM), 44.40%; with MDA-MB231 (10 µM, 48h) it was 86.07%; with A549 (10 µM) it was 59.09%. Also, the “Mean Growth Percentage” value in the data set on SK-BR3 (10 µM, 48h) turned out to be 70.59%; in the data set on Hep-G2 (10 µM, 48h), 38.07%.

`CC(=O)N[C@@H](CS)C(=O)O` [NAC, N-acetylcysteine, reference compound]: the half-inhibitory concentration (IC50) with washed platelets [2] turned out to be 872 µM.
